Measured values published in patent US20180290979A1, “COMPOSITION HAVING COMPOUND ACCELERATING PHOSPHORYLATION OF AMPK AS EFFECTIVE COMPONENT” (Kyoto University, priority 2015, published 2018).

Assays:
NIH/3T3 cells [1] = assay: Inhibition of cell death after storage at 4° C. and rewarming to 37° C.; format: cell-based, mouse; conditions: cells stored at 4° C. for 24 hours and then rewarmed to 37° C.
SH-SY5Y cells = assay: Induction of cell death in cancer cells; format: cell-based; conditions: human neuroblast
HeLa cells [2] = assay: Induction of cell death in cancer cells, WST-8 assay; format: cell-based; conditions: human cervical cancer
NIH/3T3 cells [3] = assay: Inhibition of cell death caused by serum starvation, WST-8 assay; format: cell-based, mouse; conditions: serum-free
Procedure: NIH/3T3 cells were cultured under serum-containing or serum-free conditions, and after a predetermined period of time, a WST-8 assay was performed to confirm the cell number (N=6).
FIG. 2 is a graph comparing the viable cell numbers in the serum-starved condition in the presence and absence of Compound 1.

HeLa cells [4] = assay: Effect of autophagy inhibitor 3-MA on cell death induced by Compound 1, WST-8 assay; format: cell-based, human
Procedure: 3-Methyladenine (3-MA) is a class III PI3K inhibitor and is also an autophagy inhibitor. 3-MA was added to HeLa cells for one hour, and three days later, a WST-8 assay was performed to confirm the number of the cells.
Thus, it was confirmed that cell death induced by Compound 1 in cancer cells was autophagic.

LC3-II = assay: Autophagy marker LC3-II in cancer cells, Western blotting; format: cell-based, human; conditions: HeLa cells, in the presence of 4 mM of BafA, cultured for 21 hours
Procedure: Bafilomycin A1 (BafA) is an autophagy inhibitor. BafA was added to HeLa cells for one hour and then Compound 1 was added thereto. After this was cultured for 21 hours, the cells were harvested to prepare a disrupted cell suspension, and the amount of LC3-II was confirmed by Western blotting. LC3-II is an autophagy marker.

mouse fibroblast MEF = assay: Inhibition of TNF-α induced apoptosis; format: cell-based
AMPKα = assay: Enhancement of phosphorylation of AMPK, Western blotting in NIH/3T3 cells; format: cell-based, mouse
Procedure: (§1) Compound 1 was added to mouse fibroblast NIH/3T3 cells under serum-free conditions, the cells were harvested over a period of time to prepare a disrupted cell suspension, and phosphorylated AMPKα, total AMPKα, phosphorylated ACC, and total ACC were detected by Western blotting. ACC denotes acetyl-CoA carboxylase.

Jurkat cells = assay: Induction of cell death in cancer cells, WST-8 assay; format: cell-based; conditions: human T-cell leukemia
[5] = system: liver warm ischemia reperfusion injury; assay: Rat liver warm ischemia reperfusion injury model; format: in vivo; conditions: LEW rats, 0.3 mg/kg before ischemia
Procedure: An experiment was performed with a rat liver warm ischemia reperfusion model, in which LEW rats of eight to nine weeks of age were subjected to laparotomy under general anesthesia by endotracheal intubation, and after 20 minutes of warm ischemia applied by blocking the hepatic portal region, the blocking was released and reperfusion was carried out. With respect to positive subjects, using AICAR (aminoimidazole-4-carboxamide rebonucleoside), which is an AMPK activator, a solvent, Compound 1 (0.3 mg/kg), and AICAR (100 mg/kg) were administered, respectively, before ischemia, and aspartate aminotransferase (AST) and alanine aminotransferase (ALT), which are liver deviation enzymes, in peripheral blood were measured six hours after the reperfusion (N=3).

[6] = system: Mouse spinal cord macrophages; assay: Inhibition of cell death in primary culture, WST-8 assay; format: cell-based; conditions: serum-containing or serum-free
Procedure: Mouse spinal cord macrophages were cultured under serum-containing or serum-free conditions, and after a predetermined period of time, a WST-8 assay was performed to confirm the cell number (N=6).

[7] = system: ACC (acetyl-CoA carboxylase); assay: Enhancement of phosphorylation of ACC, Western blotting in NIH/3T3 cells; format: cell-based, mouse
Procedure: as §1

[8] = 16 hours after the addition (data not shown)
[9] = NIH/3T3 cells, serum-free, within 10 minutes after the addition

O=S(=O)(Nc1cc(C(F)(F)F)ccc1N1CC[C@@H]2CCCC[C@H]2C1)c1ccc(F)cc1 [Compound 1, 4-fluoro-N-(2-((4aS,8aR)-octahydroisoquinolin-2(1H)-yl)-5-(trifluoromethyl)phenyl)benzenesulfonamide]
cell death after cold storage and rewarming (NIH/3T3 cells [1]): cell death inhibitory effect was observed | cell death in cancer cells (SH-SY5Y cells): able to induce cell death | cell death in cancer cells (HeLa cells [2]): able to induce cell death | cell death caused by serum starvation (viable cell number) (NIH/3T3 cells [3]): significantly inhibited cell death | type of cell death induced in cancer cells (HeLa cells [4]; HeLa cells, with 3-MA, three days): autophagic | amount of LC3-II (LC3-II): considerably increased | TNF-α induced apoptosis (proinflammatory cell death) (mouse fibroblast MEF): cell death inhibitory effect was observed | phosphorylation of AMPK (AMPKα; [8]): maintained | phosphorylation of AMPK (AMPKα; [9]): enhanced | cell death in cancer cells (Jurkat cells): able to induce cell death | hepatic injury [5]: alleviate hepatic injury | elevation of liver deviation enzymes (AST, ALT) in peripheral blood ([5]; 20 minutes warm ischemia, six hours after the reperfusion): inhibited the elevation of liver deviation enzymes | cell death in primary culture (viable cell number) [6]: significantly inhibited cell death | phosphorylation of ACC [7, 8]: maintained | phosphorylation of ACC [7, 9]: enhanced

O=S(=O)(Nc1cc(C(F)(F)F)ccc1N1CC[C@@H]2CCCC[C@H]2C1)c1ccccc1 [Compound 2, N-(2-((4aS,8aR)-octahydroisoquinolin-2(1H)-yl)-5-(trifluoromethyl)phenyl)benzenesulfonamide]
cell death caused by serum starvation (viable cell number) (NIH/3T3 cells [3]): cell death inhibitory effect equivalent to that of Compound 1

Cc1ccc(S(=O)(=O)Nc2cc(C(F)(F)F)ccc2N2CC[C@@H]3CCCC[C@H]3C2)cc1 [Compound 3, N-(2-((4aS,8aR)-octahydroisoquinolin-2(1H)-yl)-5-(trifluoromethyl)phenyl)-4-toluenesulfonamide]
cell death caused by serum starvation (viable cell number) (NIH/3T3 cells [3]): cell death inhibitory effect equivalent to that of Compound 1

Cn1cnc(N)c2ncnc1-2 [Compound 3-MA, 3-Methyladenine, reference compound]
survival rate of the cells (HeLa cells [4]; HeLa cells with cell death induced by Compound 1, depending on the amount of 3-MA added): improved

O=S(=O)(Nc1cc(C(F)(F)F)ccc1N1CC[C@@H]2CCCC[C@H]2C1)c1ccc(Br)cc1 [Compound 4, 4-bromo-N-(2-((4aS,8aR)-octahydroisoquinolin-2(1H)-yl)-5-(trifluoromethyl)phenyl)benzenesulfonamide]
cell death caused by serum starvation (viable cell number) (NIH/3T3 cells [3]): cell death inhibitory effect equivalent to that of Compound 1

O=S(=O)(Nc1cc(C(F)(F)F)ccc1N1CC[C@@H]2CCCC[C@H]2C1)c1ccc2ccccc2c1 [Compound 6, N-(2-((4aS,8aR)-octahydroisoquinolin-2(1H)-yl)-5-(trifluoromethyl)phenyl)-2-naphthalenesulfonamide]
cell death caused by serum starvation (viable cell number) (NIH/3T3 cells [3]): cell death inhibitory effect equivalent to that of Compound 1
